From patent US7807703B2, “Substituted aryl ketones” (Bayer CropScience AG, priority 2002, dated 2010)

experiment: log P determination by reversed-phase HPLC (EEC Directive 79/831 Annex V.A8; acidic or neutral mobile phase); type: physicochemical; settings: HPLC reversed-phase C18, 43° C., acidic range: 0.1% aqueous phosphoric acid, acetonitrile (marked a))
Protocol: The log P values given in the table were determined in accordance with EEC Directive 79/831 Annex V.A8 by HPLC (High Performance Liquid Chromatography) using a reversed-phase column (C 18). Temperature: 43° C.
(a) Mobile phases for the determination in the acidic range: 0.1% aqueous phosphoric acid, acetonitrile; linear gradient from 10% acetonitrile to 90% acetonitrile—the corresponding measurement results are marked a) in Table 1.
(b) Mobile phases for the determination in the neutral range: 0.01 molar aqueous phosphate buffer solution, acetonitrile; linear gradient from 10% acetonitrile to 90% acetonitrile—the corresponding measurement results are marked b) in Table 1.

Structure (SMILES)	logP
CON(Cc1cccnc1)Cc1c(S(C)(=O)=O)ccc(C(=O)C2C(=O)CCCC2=O)c1Cl [Example 216]	(I-2) logP = 1.47^a)

same assay, conditions: HPLC reversed-phase C18, 43° C.; acidic range: 0.1% aqueous phosphoric acid, acetonitrile gradient (marked a))

Structure (SMILES)	logP
CCn1ncc(C(=O)c2ccc(S(C)(=O)=O)c(OCCNS(C)(=O)=O)c2Cl)c1O [Example 13]	logP = 1.23^a)
CON(C)Cc1c(S(C)(=O)=O)ccc(C(=O)C2C(=O)CCCC2=O)c1Cl [Example 145]	logP = 2.49^a)
C=CCN(Cc1c(S(C)(=O)=O)ccc(C(=O)C2C(=O)CCCC2=O)c1Cl)OC [Example 158]	(I-2) logP = 3.01^a)
CCN(Cc1c(Cl)ccc(C(=O)C2C(=O)CCCC2=O)c1Cl)OC [Example 148]	logP = 3.63^a)
CONCc1c(Cl)ccc(C(=O)C2C(=O)CCCC2=O)c1Cl [Example 129]	logP = 2.33^a)
O=C1CCCC(=O)C1C(=O)c1ccc(Cl)c(OCCNS(=O)(=O)c2cccs2)c1Cl [Example 35]	(I-2) logP = 2.92^a)

same assay, conditions: HPLC, reversed-phase C18, 43° C.; acidic range a): 0.1% aqueous phosphoric acid, acetonitrile, linear gradient 10% to 90% acetonitrile

Structure (SMILES)	logP
CON(Cc1c(S(C)(=O)=O)ccc(C(=O)C2C(=O)CCCC2=O)c1Cl)C1CCOC1 (centres unmarked) [Example 409]	(I-2) logP = 2.32^a)
CCn1ncc(C(=O)c2ccc(S(C)(=O)=O)c(CN(CC3CCOC3)OC)c2Cl)c1O (centres unmarked) [Example 423]	(I-2) logP = 1.97^a)
CCn1ncc(C(=O)c2ccc(S(C)(=O)=O)c(CN(OC)C3CCOC3)c2Cl)c1O (centres unmarked) [Example 410]	(I-2) logP = 1.70^a)
CCON(C)Cc1c(S(C)(=O)=O)ccc(C(=O)C2C(=O)CCCC2=O)c1Cl [Example 424]	logP = 2.82^a)
CCN(CC)C(=O)CN(Cc1c(S(C)(=O)=O)ccc(C(=O)c2cnn(CC)c2O)c1Cl)OC [Example 389]	(I-2) logP = 1.85^a)
CCON(C)Cc1c(S(C)(=O)=O)ccc(C(=O)c2cnn(C)c2O)c1Cl [Example 414]	logP = 1.71^a)
CCS(=O)(=O)NCCOc1c(Cl)ccc(C(=O)C2C(=O)CCCC2=O)c1C [Example 359]	logP = 2.33^a)
CCON(Cc1c(S(C)(=O)=O)ccc(C(=O)c2cnn(CC)c2O)c1Cl)CC1CCOC1 (centres unmarked) [Example 416]	(I-2) logP = 2.11^a)
CCS(=O)(=O)NCCOc1c(Br)ccc(C(=O)C2C(=O)CCCC2=O)c1C [Example 364]	logP = 2.41^a)
CCN(Cc1c(Cl)ccc(C(=O)c2cnn(C)c2O)c1OC)S(C)(=O)=O [Example 463]	logP = 1.80^a)
COc1c(C(=O)C2C(=O)CCC(C)(C)C2=O)ccc(Cl)c1CN(C)S(C)(=O)=O (centres unmarked) [Example 473]	(I-2) logP = 2.92^a)
CCON(CC)Cc1c(S(C)(=O)=O)ccc(C(=O)C2C(=O)CCCC2=O)c1Cl [Example 390]	logP = 3.22^a)
CS(=O)(=O)c1ccc(C(=O)C2C(=O)CCCC2=O)c(Cl)c1CNOCCOc1ccccc1 [Example 442]	(I-2) logP = 3.07^a)
CCn1ncc(C(=O)c2ccc(S(C)(=O)=O)c(CN(C)OCC3CCCCO3)c2Cl)c1O (centres unmarked) [Example 439]	(I-2) logP = 2.35^a)
COc1c(C(=O)C2C(=O)CC(C)CC2=O)ccc(Cl)c1CN(C)OC (centres unmarked) [Example 482]	(I-2) logP = 3.09^a)
CCn1ncc(C(=O)c2ccc(S(C)(=O)=O)c(CN(C)OCC3CC3)c2Cl)c1O [Example 443]	(I-2) logP = 2.41^a)

Structure (SMILES)	logP
CN(Cc1c(Cl)ccc(C(=O)C2C(=O)CCC(C)(C)C2=O)c1Cl)S(C)(=O)=O (centres unmarked) [Example 459]	(I-2) logP = 3.01^a)
CN(Cc1c(S(C)(=O)=O)ccc(C(=O)c2cnn(C)c2O)c1Cl)OCC1CCOC1 (centres unmarked) [Example 437]	(I-2) logP = 1.73^a)
COCCON(C)Cc1c(S(C)(=O)=O)ccc(C(=O)C2C(=O)CCCC2=O)c1Cl [Example 429]	(I-2) logP = 2.43^a)
CCn1ncc(C(=O)c2ccc(Cl)c(OCCNS(=O)(=O)CC)c2C)c1O [Example 358]	logP = 2.03^a)
CCON(Cc1c(S(C)(=O)=O)ccc(C(=O)c2cnn(CC)c2O)c1Cl)C(C)C [Example 392]	logP = 2.89^a)
CCn1ncc(C(=O)c2ccc(S(C)(=O)=O)c(CN(C)OCCOC)c2Cl)c1O [Example 431]	(I-2) logP = 1.80^a)
COCCON(C)Cc1c(S(C)(=O)=O)ccc(C(=O)c2cnn(C)c2O)c1Cl [Example 433]	(I-2) logP = 1.51^a)
CCn1ncc(C(=O)c2ccc(S(C)(=O)=O)c(CN(C)OC3CCCC3)c2Cl)c1O [Example 397]	(I-2) logP = 2.87^a)
COc1c(C(=O)c2cnn(C)c2O)ccc(Cl)c1CN(C)OC [Example 478]	logP = 1.90^a)
CCn1ncc(C(=O)c2ccc(Cl)c(CN(C)S(C)(=O)=O)c2OC)c1O [Example 470]	logP = 1.86^a)
CCN(Cc1c(Cl)ccc(C(=O)C2C(=O)CCC(C)(C)C2=O)c1OC)OC (centres unmarked) [Example 484]	(I-2) logP = 2.30^a)
CON(Cc1c(S(C)(=O)=O)ccc(C(=O)c2cnn(C)c2O)c1Cl)C(C)C [Example 371]	logP = 2.16^a)
CN(Cc1c(Cl)ccc(C(=O)C2C(=O)CCCC2=O)c1Cl)S(C)(=O)=O [Example 458]	logP = 2.32^a)
COc1c(C(=O)C2C(=O)CC(C)CC2=O)ccc(Cl)c1CN(C)S(C)(=O)=O (centres unmarked) [Example 476]	(I-2) logP = 2.56^a)
CCn1ncc(C(=O)c2ccc(Br)c(OCCNS(C)(=O)=O)c2C)c1O [Example 365]	logP = 1.89^a)
CN(Cc1c(S(C)(=O)=O)ccc(C(=O)C2C(=O)CCC(C)(C)C2=O)c1Cl)OCC1CCOC1 (centres unmarked) [Example 436]	(I-2) logP = 3.49^a)

same assay, conditions: HPLC, reversed-phase C 18, 43° C.; acidic range: 0.1% aqueous phosphoric acid, acetonitrile (marked a) or acidic)

Structure (SMILES)	log P (acidic)
COC(=O)c1ccc(S(C)(=O)=O)c(CN(C)OCC2CCCCO2)c1Cl (centres unmarked) [VIII-65]	logPacidic = 2.87
COC(=O)c1ccc(S(C)(=O)=O)c(OCCNS(C)(=O)=O)c1Cl [VIII-30]	logPacidic = 1.56
COC(=O)c1ccc(Br)c(OCCNS(C)(=O)=O)c1Br [VIII-32]	logPacidic = 2.13
COC(=O)c1ccc(S(C)(=O)=O)c(CN(C)OCCOc2ccccc2)c1Cl [VIII-63]	logPacidic = 3.37
COC(=O)c1ccc(S(C)(=O)=O)c(CN(OC)C2CCCOC2)c1Cl (centres unmarked) [VIII-59]	logPacidic = 2.55
CCON(Cc1c(S(C)(=O)=O)ccc(C(=O)OC)c1Cl)C(C)C [VIII-44]	logPacidic = 3.52
COC(=O)c1ccc(S(C)(=O)=O)c(CN(Cc2ccoc2)OC)c1Cl [VIII-57]	logPacidic = 2.91
CCS(=O)(=O)NCCOc1c(Cl)ccc(C(=O)OC)c1C [VIII-27]	logPacidic = 2.37
COC(=O)c1ccc(S(C)(=O)=O)c(CN(OC)C(=O)C(F)(F)F)c1Cl [VIII-50]	logPacidic = 2.60
COC(=O)c1ccc(S(C)(=O)=O)c(CN(OC)C(C)C2CC2)c1Cl (centres unmarked) [VIII-37]	logPacidic = 3.58
COC(=O)c1ccc(S(C)(=O)=O)c(CN(CC2CC2)OC)c1Cl [VIII-34]	logPacidic = 3.18
COC(=O)c1ccc(S(C)(=O)=O)c(CN(Cc2cccnc2)OC)c1Cl [VIII-42]	logPacidic = 1.16
COC(=O)c1ccc(S(C)(=O)=O)c(CN(OC)C2CCSCC2)c1Cl [VIII-40]	logPacidic = 3.20
COC(=O)c1ccc(Cl)c(CN(C)OC)c1OC [VIII-66]	logPacidic = 2.76
CCN(Cc1c(S(C)(=O)=O)ccc(C(=O)OC)c1Cl)S(C)(=O)=O [VIII-72]	logPacidic = 1.88
COC(=O)c1ccc(S(C)(=O)=O)c(CNOCCOc2ccccc2)c1Cl [VIII-62]	logPacidic = 2.93
COC(=O)c1ccc(S(C)(=O)=O)c(CN(C)OC)c1Cl [VIII-22]	logPacidic = 2.31
CCN(Cc1c(Cl)ccc(C(=O)OC)c1OC)OC [VIII-67]	logPacidic = 3.43
CCON(Cc1c(S(C)(=O)=O)ccc(C(=O)OC)c1Cl)CC1CCOC1 (centres unmarked) [VIII-55]	logPacidic = 2.60

same assay, conditions: HPLC, reversed-phase C 18, 43° C.; mobile phase range not marked

Structure (SMILES)	log P	logP (HPLC, mobile phase not marked)
COC(=O)c1ccc(Cl)c(CN(C)OC)c1Cl [VIII-8]	logP = 3.08	
CCOC(=O)c1ccc(Cl)c(OCCNS(=O)(=O)CCl)c1Cl [VIII-16]	logP = 2.80	
CCn1ncc(C(=O)c2ccc(S(C)(=O)=O)c(CNOC)c2Cl)c1O [Example 299]		1.20
CCON(CC)Cc1c(S(C)(=O)=O)ccc(C(=O)OC)c1Cl [VIII-12]	logP = 3.06	
CS(=O)(=O)c1ccc(C(=O)C2C(=O)CCCC2=O)c(Cl)c1CNOCc1ccccc1 [Example 348]		(I-2) 3.04
CCN(Cc1c(Cl)ccc(C(=O)OC)c1Cl)OC [VIII-9]	logP = 3.72	
CON(Cc1ccccc1)Cc1c(S(C)(=O)=O)ccc(C(=O)c2cnn(C)c2O)c1Cl [Example 335]		2.48
CCOC(=O)c1ccc(Cl)c(OCCNS(C)(=O)=O)c1Cl [VIII-14]	logP = 2.24	
CCN(Cc1c(S(C)(=O)=O)ccc(C(=O)c2cnn(C)c2O)c1Cl)OC [Example 310]		1.84
CCn1nc(C)c(C(=O)c2ccc(S(C)(=O)=O)c(CN(C)OC)c2Cl)c1O [Example 307]		1.45
CON(Cc1c(S(C)(=O)=O)ccc(C(=O)C2C(=O)CCCC2=O)c1Cl)C(C)C [Example 343]		(I-2) 3.26

same assay, conditions: reversed-phase C18 HPLC column; HPLC, reversed-phase C 18, 43° C.; mobile phase range not marked; read-out: log P

Structure (SMILES)	chromatographic logP
CCOC(=O)c1ccc(Cl)c(OCCN)c1Cl [ethyl 3-(2-aminoethoxy)-2,4-dichlorobenzoate]	1.08
COC(=O)c1ccc(Cl)c(CN(C)OC)c1Cl [VIII-1, methyl 2,4-dichloro-3-(N-methoxy-N-methylaminomethyl)benzoate]	3.08
